From patent publication US20050282865A1, “Neurotrophic factor production promoter” (FUJISAWA PHARMACEUTICAL CO., LTD., priority 2002, published 2005)

Tests used:
NGF [1] = assay: NGF expression in the cerebral cortex of mouse model of Parkinson's disease (EIA); format: in vivo; details: 6-OHDA mouse model
Method: (§1) The removed cerebral cortex and striatum were weighed, a homogenizing buffer (0.1M Tris-phosphate buffer (pH 7.4) containing 1M sodium hydrochloride, 2% BSA, 2 mM EDTA, 0.2% sodium azide) supplemented with aprotinin (80 TIU/L) was added in an amount of 19-fold volume of the weight, and the mixture was sonicated 30 times. After centrifugation (100,000 g×30 min) at 4° C., the supernatant was separated and the same amount of chloroform was added. The mixture was thoroughly stirred and centrifuged (20,000 g×10 min). The supernatant was separated and used as a sample for EIA (cryopreserved at −20° C. until use).
(§2) The concentration of neurotrophic factor in each sample was measured using EIA according to the method of Furukawa et al. (Journal of Neurochemistry), 40, 734-744 (1983)} in the case of NGF, and using EIA according to the method of Nitta et al. {pp. 463-467 of “Mapping the progress of Alzheimer's and Parkinson's Disease” (2002) edited by Mizuno et al.}, in the case of GDNF. The obtained values were multiplied by 20 to give a neurotrophic factor content of each brain region.
(§3) 5-week-old male ddy mice (Japan LLC, Inc.) were divided into the following four groups (9 mice per group) and subjected to a test. […]

dopaminergic nerve = assay: Functional evaluation of dopaminergic nerve: methamphetamine-induced one side cycling movement in 6-OHDA mouse model of Parkinson's disease; format: in vivo; details: 6-OHDA striatum destruction, counted 10-20 min after methamphetamine 10 mg/kg, no-APA group 86.0±14.1
Method: 5-week-old male ddy mice (Japan LLC, Inc.) were divided into the following four groups (9 mice per group) and subjected to a test. Under pentobarbital anesthesia and without craniotomy, a needle of a microsyringe was punctured through the head skin into the striatum of the right brain, and 1 μL of 6-hydroxydopamine (6-OHDA, Sigma Co., 11.5 μg/μL) dissolved in physiological saline containing 0.05% ascorbic acid was injected. • Group 1 (Control) Physiological saline containing only ascorbic acid was injected, whereby the striatum was not damaged. […]
The mouse models of Parkinson's disease of each of the above-mentioned groups were allowed to search freely in a transparent cylindrical container (glass, diameter 9 cm-height 12 cm) for 10 min, methamphetamine (DAINIPPON Pharmaceutical Co., Ltd., 10 mg/kg) was intraperitoneally administered, and the number of cycling in 10-20 min after administration was counted. […]

NGF [2] = assay: NGF expression in the brain of normal mouse (EIA); format: in vivo; details: normal mice, 24 hr after final administration, vs control
Method: (§4) 5-week-old male ddy mice (Japan LLC, Inc.) were divided into the following three groups (9 mice per group) and subjected to a test. • Group 1 (Control) Phosphate buffered saline (PBS) was intraperitoneally administered to the mice once a day for 7 days. • Group 2 APA (0.75 mg/kg) dissolved in PBS was intraperitoneally administered to the mice once a day for 7 days. • Group 3 APA (7.5 mg/kg) dissolved in PBS was intraperitoneally administered to the mice once a day for 7 days.
(§5) In every group, the mice were decapitated at 24 hr after the final administration and the cerebral cortex and striatum thereof were removed.
(§6) The removed cerebral cortex and striatum were weighed, a homogenizing buffer (0.1M Tris-phosphate buffer (pH 7.4) containing 1M sodium hydrochloride, 2% BSA, 2 mM EDTA, 0.2% sodium azide) supplemented with aprotinin (80 TIU/L) was added in an amount of 19-fold volume of the weight, and the mixture was sonicated 30 times. […]
(§7) The concentration of neurotrophic factor in each sample was measured using EIA according to the method of Furukawa et al. (Journal of Neurochemistry), 40, 734-744 (1983)} in the case of NGF, and using EIA according to the method of Nitta et al. {pp. 463-467 of “Mapping the progress of Alzheimer's and Parkinson's Disease” (2002) edited by Mizuno et al.}, in the case of GDNF. […]

GDNF [3] = assay: GDNF expression in the brain of normal mouse (EIA); format: in vivo; details: normal mice, 24 hr after final administration
Method: as §4, §5, §6, §7

GDNF [4] = assay: GDNF expression in the cerebral cortex of mouse model of Parkinson's disease (EIA); format: in vivo; details: 6-OHDA mouse model
Method: as §1, §2, §3

[5] = system: rats with injured spinal cord; assay: Walking ability of rats with spinal injury (BBB scale); format: in vivo, rat; details: spinal-injured Wistar rats, APA 0.75 mg/kg i.p. once a day
Method: 7-week-old male Wistar rats (Japan SMC, Inc.) were divided into the following three groups (12-17 rats per group) and subjected to a test. Pentobarbital sodium (DAINIPPON Pharmaceutical Co., Ltd., 35 mg/kg) was intraperitoneally injected to the rats, median incision was applied to the back, and paraspinal muscle was bluntly detached. After laminectomy of the 12th thoracic vertebra, the left spinal cord was cut at the same position with a sharp cutting tool. After 5 hr from the cutting, the rats confirmed to have anesthetic disorder in the left hind paw were subjected to the following test. • Group 1 PBS was intraperitoneally administered to rats with uninjured spinal cord (sutured without cutting the spinal cord after laminectomy of the 12th thoracic vertebra). • Group 2 PBS was intraperitoneally administered to rats with injured spinal cord. • Group 3 APA (0.75 mg/kg) dissolved in PBS was intraperitoneally administered to rats with injured spinal cord.
In every group, the administration was performed once a day for 20 days from the day of spinal injury. Evaluation method of walking ability of rats with injured spinal cord: The rats were placed in a box (length 1 m×width 1 m×height 30 cm) painted in gray, allowed to search freely, and evaluated in 21 levels according to 21-Point Basso-Besttie-Bresnahan Locomotor Rating Scale (BBB scale).

[6] = Observation of normal mice after 7 consecutive days of intraperitoneal APA; format: in vivo, mouse; details: normal ddy mice, APA i.p. once a day for 7 days (0.75 or 7.5 mg/kg)
Method: as §4

[7] = APA 0.75 mg/kg i.p. once a day for 7 days
[8] = APA 7.5 mg/kg i.p. once a day for 7 days

In the case of `CC(=O)N1CCCC[C@H]1C(=O)O` [APA, N-acetyl-L-pipecolic acid], the “NGF expression amount in the cerebral cortex, increase” value (NGF [1]; [7]) is reported as 11.2%, the “NGF expression amount in the cerebral cortex, increase” value (NGF [1]; [8]) is reported as 30.7% and the “one side cycling movement” value (dopaminergic nerve; APA 0.75 mg/kg i.p. for 7 days) is reported as 40.9±17.3 times. The “one side cycling movement” value (dopaminergic nerve; APA 7.5 mg/kg i.p. for 7 days) was 47.1±13.1 times, the “NGF expression amount in the cerebral cortex” value (NGF [2]; APA 0.75 and 7.5 mg/kg i.p. once a day for 7 days) was “tended to increase in a dose-dependent manner” and the “NGF expression amount in the striatum” value (NGF [2]; APA 0.75 or 7.5 mg/kg i.p. once a day for 7 days) was “did not show remarkable difference from the control”. The “GDNF expression amount in the striatum, increase as compared to the control” value (GDNF [3]; [7]) was 66.0%, the “GDNF expression amount in the cerebral cortex” value (GDNF [3]; APA 0.75 or 7.5 mg/kg i.p. once a day for 7 days, vs control) was “no remarkable difference” and the “GDNF expression amount in the cerebral cortex, increase” value (GDNF [4]; [7]) was 74.9%. For the same molecule, the “GDNF expression amount in the cerebral cortex, increase” value (GDNF [4]; [8]) was 232.4%, the “level of walking ability (BBB scale)” value ([5]; at day 23, injury-only group plateaued at score 15) was “recovery to almost the same level as before injury” and the “effect of APA administration on walking ability (BBB scale)” value ([5]; first 2 days) was “not observed”. For the same molecule, the “level of walking ability (BBB scale)” value ([5]; from day 3) was “showed improvement from day 3” and the “abnormal behavior, alopecia or decrease of body weight as compared to control mice” value [6] was “did not show abnormal behavior, alopecia or decrease of body weight”.
